Several values for one entry are separate records, joined by “and”; a condition that tells them apart may be missing. Equal entries are not always repeated.

The term Km denotes the substrate concentration at which the rate is half of its maximum.

Test [1] concerns the target T1, MMP-9 (catalytic domain, human, recombinant) (Homo sapiens, UniProt P14780).
T1 construct: MMP-9 (catalytic domain, human, recombinant); purchased BIOMOL International
As to the kind of experiment: MMP-9 fluorescence-based inhibition assay with and without β-glucosidase. In kind it is biochemical. As for the experimental part: MMP-9 (catalytic domain, human, recombinant), MMP-8 (catalytic domain, human, recombinant), and the assay kit were purchased from BIOMOL International. The assays were carried out according to the procedure provided with the kit. MMP activity was measured in 96-well plates using a Bio-Tek Flx 800 fluorescent plate reader. The ZBGs and their protected analogs were dissolved in DMSO and diluted in HEPES buffer (50 mM, pH 7.5) to a concentration of 10 mM for 1-2, 40 mM for 3-4, and 1.25 mM for 5-6. Each well contained 20 μL, of MMP-9 (0.45 U/mL), inhibitor (10 μL, of 1-6), 5 μL, of β-glucosidase (1 U/μL) when used, and buffer for a total volume of 99 μL. These were incubated for 1 h at 37° C. […] The reaction was initiated by the addition of 1 μL (400 μM) of the fluorescent substrate (Mca-Pro-Leu-Gly-Leu-Dpa-Ala-Arg-NH2 where Mca=(7-methoxycoumarin-4-yl)-acetyl and Dpa=N-3-(2,4-dinitrophenyl)-L-α-β-diaminopropionyl)) and kinetic activity was measured every minute for 30 min with excitation and emission wavelengths at 335 nm and 405 nm, respectively. Enzyme activity with inhibitor was calculated with respect to the control experiment (no inhibitor present). Measurements were performed in duplicate in two independent experiments.
For Cmpds 7 and 8, 1 mL sample in HEPES buffer at a concentration of 1 mM was incubated at 37° C. with 250 U of β-glucosidase (1 U/μL) for 4 h giving a final concentration of 0.8 mM of the inhibitor. After 4 h, a 200 μL aliquot was collected and filtered through a microcentrifuge filter. UV-Vis absorption spectroscopy was to verify that the concentration of 1,2-HOPO-2 was 0.71±0.2 mM in each of the samples using the extinction coefficient for 1,2-HOPO-2 (7) calculated at 346 nm (4,279.3±372 M-1 cm-1). Each well was made up with 20 μL of MMP-9 (0.45 U/mL), inhibitor (2 μL, for 7 and 8), and buffer for a total volume of 99 μL. These were incubated for 30 min at 37° C. For MMP-8 inhibition assays, each of the samples was diluted to 1 μM in HEPES buffer and 15 μL of each were added to 20 μL of MMP-8 (0.092 U/mL) and buffer for a total of 99 μL. The reaction was initiated by the addition of 1 μL (400 μM) of the fluorescent substrate and kinetic activity was measured every minute for 30 min with excitation and emission wavelengths at 335 nm and 405 nm, respectively. Enzyme activity with inhibitor was calculated with respect to the control experiment (no inhibitor present). A control sample was also performed, in which an aliquot of 250 U of β-glucosidase (1 U/μL) with 1 mL of HEPES buffer was incubated for 4 h at 37° C., filtered through a microcentrifuge filter, and evaluated in the MMP assay to confirm that no inhibition is observed with β-glucosidase. Measurements were performed in duplicate in two independent experiments. […]

In the next test the test system is β-glucosidase. As to the kind of experiment: β-glucosidase cleavage of glucose-protected compounds (UV-Vis, HPLC, Km). The following applies: 37° C. In kind it is biochemical, almonds. As to the method: Absorption spectra of compounds 1-8 were taken on a Perkin-Elmer Lambda 25 UV-visible spectrophotometer. To a 1.0 mL solution at 0.05-0.06 mM concentration in HEPES buffer (50 mM, pH 7.5) was added β-glucosidase (16 U for compounds 2, 4, and 6, and 100 U for compound 8). Spectra were monitored over time either at room temperature for compounds 1-7 or at 37° C. for compound 8.
To a 1.0 mL solution of 8 in HEPES buffer at 25 μM, 50 μM, 75 μM, 100 μM, and 200 μM was added 100 U of β-glucosidase. Spectra were monitored over 4 h at 37° C. The concentration of product formed, 1,2-HOPO-2 (7), was determined using the extinction coefficient for 7 calculated at 346 nm (4279±372 M-1 cm-1) and was plotted versus time (min). The initial velocity (ν) of each reaction was determined analyzing the linear slope of the first 50 min. The Km value was calculated from the Lineweaver-Burk plot (1/ν vs. 1/[8]) where −1/Km equals the x-intercept (FIG. 10).
Analytical HPLC was performed on a HP Series 1050 system equipped with a Vydac® C18 reverse phase column (218 TP, 250×4.6 mm, 5 μm). […] Retention times of compounds 1-8 were determined under identical HPLC conditions prior to evaluation of glucose cleavage of the protected compounds. […]

T1 sequence (P14780 107-444 limits assumed): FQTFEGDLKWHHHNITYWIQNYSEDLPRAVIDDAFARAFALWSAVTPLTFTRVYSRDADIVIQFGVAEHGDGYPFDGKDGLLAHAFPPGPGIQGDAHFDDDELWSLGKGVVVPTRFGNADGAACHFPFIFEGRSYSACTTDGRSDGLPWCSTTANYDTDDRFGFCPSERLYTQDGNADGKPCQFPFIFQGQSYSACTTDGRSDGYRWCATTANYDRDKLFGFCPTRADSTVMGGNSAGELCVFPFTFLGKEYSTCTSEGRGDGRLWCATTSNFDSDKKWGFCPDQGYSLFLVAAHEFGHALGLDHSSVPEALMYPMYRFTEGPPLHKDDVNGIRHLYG

As for `O=C(NCc1ccc(-c2ccccc2)cc1)c1cccc(=O)n1O[C@@H]1O[C@H](CO)[C@@H](O)[C@H](O)[C@H]1O` [Compound 8, N-(Biphenyl-4-ylmethyl)-6-oxo-1-(β-D-glucopyranosyloxy)-1,6-dihydropyridine-2-carboxamide], in test [1] (16 μM, read-out: MMP-9 activity inhibited upon activation with β-glucosidase), the inhibition at 16 µM amounted to 73%. In addition, in test [1] (1 mM for 2, 4 mM for 4, 125 μM for 6, 16 μM for 8), the “inhibition of MMP-9 in the absence of β-glucosidase” value is “very little inhibition”. In addition, the Michaelis-Menten constant (Km) in the test on β-glucosidase (100 U β-glucosidase, Lineweaver-Burk plot) is ~210 µM and 210 µM. In addition, the “time required for complete conversion of 8 to 7” value in the test with β-glucosidase (β-glucosidase) is given as about 4 h.

The values are drawn from patent US8889638B2, “Stimulus-triggered prodrugs” (The Regents of the University of California, priority 2010, dated 2014).
